Laboratory results: patent publication US20090264528A1, “SERINE PALMITOYLCOA TRANSFERASE (SPT) INHIBITION BY MYRIOCIN OR GENETIC DEFICIENCY DECREASES CHOLESTEROL ABSORPTION” (The Research Foundation of State University of New York, priority 2008, published 2009)
Entries after “also recorded” stand apart in the source; their conditions may differ.

Columns and labels:
Format in all cases: in vivo, mouse
[1] = system: ABCG5; assay: Western blot of small intestine homogenates, ABCG5; settings: WT and apoE KO mice, compared with nontreated animals
Procedure: (§1) FIG. 8 depicts that SPT deficiency decreased NPC1L1 and ABCA1, and increased ABCG5 in mouse small intestine. Tissue homogenates were prepared as described in Methods, and equal amounts of homogenates from each mouse were pooled in each group (n=5). A total of 50 microg pooled sample from each group was immunoblotted with antibodies against NPC1L1, ABCA1, and ABCG5. Immunoblots of beta (β)-actin were used as a loading control.
(§2) Preparation and Western blot analysis of small intestine homogenates: A total of 50-100 mg of small intestine sample was homogenized and lysed proteins were immunoblotted, as previously described, (3) with a polyclonal rabbit antihuman NPC1L1 antiserum 69B, a polyclonal rabbit antimouse ABCG5 antiserum, a polyclonal antimouse ABCA1 antibody, and a monoclonal mouse anti-(beta)β-actin antibody.
(§3) Next, Western blot measurements of NPC1L1 and ABCG5/G8 were completed, where the measurement were located in apical membranes of the enterocytes. […] Also, ABCA1 was measured, which is located in the basal membranes of the enterocytes and is involved in cholesterol secretion.

[2] = system: ABCA1; assay: Western blot of small intestine homogenates, ABCA1; settings: SPT-deficient small intestines (myriocin-treated, FIG. 6A) compared with controls
Procedure: as §1, §2, §3

[3] = system: NPC1L1 mRNA; assay: Real-time PCR, NPC1L1 mRNA; settings: small intestine (jejunum)
Procedure: (§4) FIGS. 9A-F depict that Mouse small intestine and liver NPC1L1, ABCG5/G8, and ABCA1 mRNA measurements. NPC1L1, ABCG5/G8, and ABCA1 mRNA levels were measured by real-time PCR as described in “Methods and Materials.” FIG. 9A, jejunum from WT mice with or without myriocin treatment; FIG. 9B, jejunum from apoE KO mice with or without myriocin treatment; FIG. 9C, jejunum from WT and Sptlc1^+/− mice; FIG. 9D, liver from WT mice with or without myriocin treatment; FIG. 9E, liver from apoE KO mice with or without myriocin treatment; FIG. 9F, liver from WT and Sptlc1^+/− mice. Values are mean±SD, n=5. *P<0.01.
Real-time PCR examined genes' expression: Mice were sacrificed by cervical dislocation. Jejunum was dissected, and total RNA extracted with Trizol (Invitrogen). cDNA was synthesized with an Invitrogen kit. […] The genes' relative expression was expressed as mean±SD. […]
For further elucidation of the possible mechanisms for cholesterol absorption reduction in the SPT-deficient small intestine, NPC1L1, ABCG5/G8, and ABCA1 mRNA levels in myriocin-treated WT, apoE KO, and Sptlc1^+/− mice, as well as in controls were measured. […] Also, the liver mRNA levels were measured to find that myriocin treatment or Sptlc1 deficiency has no influence on ABCG5/G8 mRNA levels (FIG. 7B). […] NPC1L1 mRNA in WT or Sptlc1^+/− livers were not detected (data not shown).

[4] = system: ABCG8 mRNA; assay: Real-time PCR, ABCG8 mRNA; settings: for increase of ABCG8 mRNA levels compared with controls: small intestine, P<0.01
Procedure: as §4
Real-time PCR examined genes' expression: Mice were sacrificed by cervical dislocation. Jejunum was dissected, and total RNA extracted with Trizol (Invitrogen). cDNA was synthesized with an Invitrogen kit. Polymerase chain reaction (PCR) was performed on a total volume of 20 microl with the sybergreen kit from Applied Biosystems, 18S being used as an internal control. The amplification program consisted of activation at 95 degrees C. for 10 minutes, followed by 40 amplification cycles: 95 degrees C. for 15 seconds, 60 degrees C. for 1 minute. Each sample was triplicated. The genes' relative expression was expressed as mean±SD. The primers are located in the below table which lists the name, sequence, and sequence identification number.
For further elucidation of the possible mechanisms for cholesterol absorption reduction in the SPT-deficient small intestine, NPC1L1, ABCG5/G8, and ABCA1 mRNA levels in myriocin-treated WT, apoE KO, and Sptlc1^+/− mice, as well as in controls were measured. […] Moreover, intestinal MTP activity was not influenced by SPT deficiency (data not shown). Also, the liver mRNA levels were measured to find that myriocin treatment or Sptlc1 deficiency has no influence on ABCG5/G8 mRNA levels […]. […] NPC1L1 mRNA in WT or Sptlc1^+/− livers were not detected (data not shown).

[5] = system: small intestine; assay: Small intestine morphology, hematoxylin and eosin staining; settings: WT and apoE KO mice after myriocin treatment
Source text: The small intestine was dissected out and put into 4% paraformaldehyde for fixation overnight. The tissue was then sliced (10 micrometer thick). Each slice was deparaffinized and stained with hematoxylin and eosin. The morphology was checked by microscope. WT mice fed chow diet (FIGS. 2A, 2B) or chow diet plus myriocin (FIGS. 2C, 2D). FIGS. 2A and 2C are at 10× magnification, while FIGS. 2B and 2D are at 40× magnification.
The small intestine was dissected out and put into 4% paraformaldehyde for fixation overnight. The tissue was then sliced (10 micrometer thick). Each slice was deparaffinized and stained with hematoxylin and eosin. The morphology was checked by microscope. apoE KO mice fed chow diet (FIGS. 3A, 3B) or chow diet plus myriocin (FIGS. 3C, 3D). FIGS. 3A and 3C are at 10× magnification, while FIGS. 3B and 3D are at 40× magnification.
Mouse small intestine hematoxylin and eosin staining: The small intestine was dissected out and put into 4% paraformaldehyde for fixation overnight. The tissue was then sliced (10 micro m thick). Each slice was deparaffinized and stained with hematoxylin and eosin.
To investigate whether myriocin treatment or Sptlc1^+/− had any impact on small intestine morphology, intestinal sections were stained with hematoxylin and eosin. As shown in FIGS. 2 through 4, neither myriocin treatment nor Sptlc1^+/− influenced the morphology of the small intestine.

SMILES: CCCCCCC(=O)CCCCCC/C=C/C[C@@H](O)[C@H](O)[C@@](N)(CO)C(=O)O [Myriocin, myriocin]
- ABCG5 protein mass in small intestine [1]: increased
- ABCA1 protein in small intestine [2]: decreased
- NPC1L1 mRNA levels [3]: No significant changes
- ABCG8 mRNA levels (printed ABCG5/G8) ([4]; liver): no influence
- increase of ABCG8 mRNA levels compared with controls ([4]; WT mice): 46%
- increase of ABCG8 mRNA levels compared with controls ([4]; apoE KO mice): 63%
- morphology / pathological changes of the small intestine (gastrointestinal toxicity) [5]: no pathological changes; also recorded: intact villi, epithelia, enterocytes, goblet cells, and brush borders
